Data published in publication PMC9532951, “Identification and characterization of a novel SNAT2 (SLC38A2) inhibitor reveals synergy with glucose transport inhibition in cancer cells” (Frontiers in Pharmacology, 2022).
Several values for one entry are separate records, joined by “and”; a condition that tells them apart may be missing. Identical values can stand only once.

Key:
SNAT2 = assay: Radiolabelled proline uptake in amino acid depleted SKOV3 cells; type: cell-based, human
Experimental: (§1) Functional characterisation of plasma membrane transporters in human cancer cells was determined at 37°C using an array of radiolabelled amino acid substrates. Modified Hanks HEPES-buffered salts solution (mHBSS; 137 mM NaCl; 5.4 mM KCl; 2.7 mM K2HPO4; 1 mM CaCl2; 0.5 mM MgCl2; 0.44 mM KH2PO4; 0.4 mM MgSO4; 5 mM D-glucose; 5 mM HEPES; pH 7.4) was used to wash and incubate cells where sodium dependent transport was measured, while N-methyl-D-glucamine (NMDG) and potassium salts substituted sodium in NMDG mHBSS to measure sodium independent uptake. For the assay, cells were seeded in 35 mm dishes and, once confluent, were washed thrice with warm mHBSS solution and incubated with mHBSS containing an 100 µM amino acid at a final specific activity of ≥2000 cpm/nmol (U-[^14C]amino acids were from PerkinElmer). After 6 min, cells were washed thrice with ice-cold mHBSS, lysed with 500 µl of 0.1 M HCl, detached with a cell scraper and triturated. A 400 µl aliquot was used for scintillation counting, while the remainder was saved for protein mass quantification by Bradford assay. Transport rates were normalised to the protein content of the culture dish.
IC50 were calculated using equation y=ymax(1−x/x+IC50)

SNAT1 = biological target: T1, SNAT1 (Homo sapiens, UniProt Q9H2H9); assay: Alanine uptake in HCC1806 D126 (ASCT2ko, SNAT2ko) cells; type: cell-based
T1 construct: SNAT1 remained active as indicated by the Na^+-dependence of alanine uptake; endogenous in cells; host or cells: HCC1806 clone D126 (ASCT2ko, SNAT2ko), amino acid depleted for 24 h
T1 sequence (Q9H2H9 1-487): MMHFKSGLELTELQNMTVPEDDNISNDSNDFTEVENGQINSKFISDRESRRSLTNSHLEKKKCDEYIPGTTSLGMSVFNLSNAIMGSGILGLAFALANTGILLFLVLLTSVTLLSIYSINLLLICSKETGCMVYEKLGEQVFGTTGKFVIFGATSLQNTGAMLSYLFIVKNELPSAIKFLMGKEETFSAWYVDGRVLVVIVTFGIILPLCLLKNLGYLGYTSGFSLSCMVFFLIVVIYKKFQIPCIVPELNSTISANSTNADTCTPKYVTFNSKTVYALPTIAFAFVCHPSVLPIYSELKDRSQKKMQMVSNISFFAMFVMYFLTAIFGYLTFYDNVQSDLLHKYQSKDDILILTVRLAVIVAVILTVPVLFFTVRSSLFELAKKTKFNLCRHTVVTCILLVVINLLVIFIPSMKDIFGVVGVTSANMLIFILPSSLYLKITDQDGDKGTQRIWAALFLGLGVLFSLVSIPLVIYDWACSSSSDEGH
Experimental: To delete the SNAT2 (SLC38A2) gene in modified HCC1806 cells (clone C10 nullizygous for ASCT2 ([Broer et al., 2019])), the GeneArt CRISPR Nuclease Vector with OFP Reporter Kit (Invitrogen; A21174) was employed and complementary 19–20 bp long single-stranded oligonucleotides with overhangs were designed to produce a guide RNA (gRNA) for the Cas9 nuclease that would target exon 7 of the SNAT2 gene. Colonies were analysed by sequencing using the U6 primer included in the GeneArt CRISPR Nuclease Vector with OFP Reporter kit. Plasmids that contained the correct CRISPR nuclease construct were then used to transfect HCC1806 cells with Lipofectamine 2000 (Invitrogen). Prior to transfection, medium was replaced with 2 ml of fresh DMEM/F-12 (supplemented with 10% heat-inactivated FBS and 2 mM glutamine). Plasmid DNA (4 µg) and 10 µL of Lipofectamine 2000 were incubated separately for 5 min at room temperature in 500 µl of Opti-MEM (Invitrogen) before being combined and incubated for a further 30 min at room temperature. The DNA-Lipofectamine complex was then added to the cells in a dropwise manner and allowed to be absorbed over 6 h at 37°C, after which the medium was renewed with fresh DMEM/F-12. Cells were checked for red fluorescence using an EVOS FL cell imaging system (Thermo Fisher Scientific) 48–72 h post transfection. Subsequently, cells were detached using 0.25% Trypsin EDTA. After harvesting and washing thrice with PBS (pH 7.4), cells were resuspended in PBS (pH 7.4) supplemented with 5 mM glucose and 1% dialysed and heat inactivated FBS and passed through a 100 μm cell strainer. The cell filtrate was then pelleted once more and resuspended in the same buffer. Cells were sorted using an ARIA II FACS machine and individually dispensed into the wells of a 96-well plate. Nullizygous clones were identified using a series of assays including the FLIPR membrane potential assay, western blotting and sequencing.
as §1

Cc1ccc(S(=O)(=O)N(C)c2ccsc2C(=O)NCc2ccccc2C(F)(F)F)cc1 [Compound 57_E, 3-(N-methyl (4-methylphenyl)sulfonamido)-N-(2-trifluoromethylbenzyl)thiophene-2-carboxamide]
inhibition of proline uptake (SNAT2; 30 µM, Figure 4A): inhibition equivalent to betaine
Proline uptake (nmol / mg protein x 6 min) (SNAT2; Figure 4A, screening compounds, replicates 1-3): 12.1271 nmol / mg protein x 6 min and 12.3527 nmol / mg protein x 6 min and 11.9613 nmol / mg protein x 6 min
Proline uptake (nmol / mg protein x 6 min) (SNAT2; Figure 5B, 0.03 uM): 13.4934 nmol / mg protein x 6 min and 12.6179 nmol / mg protein x 6 min and 11.806 nmol / mg protein x 6 min and 12.3756 nmol / mg protein x 6 min
Proline uptake (nmol / mg protein x 6 min) (SNAT2; Figure 5B, 0.1 uM): 11.4589 nmol / mg protein x 6 min and 11.5974 nmol / mg protein x 6 min and 12.2114 nmol / mg protein x 6 min and 11.4952 nmol / mg protein x 6 min
Proline uptake (nmol / mg protein x 6 min) (SNAT2; Figure 5B, 0.3 uM): 9.658 nmol / mg protein x 6 min and 10.0504 nmol / mg protein x 6 min and 12.5202 nmol / mg protein x 6 min and 8.873 nmol / mg protein x 6 min
Proline uptake (nmol / mg protein x 6 min) (SNAT2; Figure 5B, 1 uM): 8.923 nmol / mg protein x 6 min and 10.4357 nmol / mg protein x 6 min and 8.533 nmol / mg protein x 6 min
Proline uptake (nmol / mg protein x 6 min) (SNAT2; Figure 5B, 3 uM): 6.737 nmol / mg protein x 6 min and 7.879 nmol / mg protein x 6 min and 6.95 nmol / mg protein x 6 min and 7.052 nmol / mg protein x 6 min
Proline uptake (nmol / mg protein x 6 min) (SNAT2; Figure 5B, 10 uM): 6.707 nmol / mg protein x 6 min and 7.214 nmol / mg protein x 6 min and 6.31 nmol / mg protein x 6 min and 7.23 nmol / mg protein x 6 min
discrimination between SNAT2 and SNAT1 (SNAT1): discriminated against the close transporter homologue SNAT1
Alanine uptake (nmol / mg protein x 6 min) (SNAT1; Figure 4B, screening compounds, replicates 1-3): 28.3148 nmol / mg protein x 6 min and 26.5203 nmol / mg protein x 6 min and 27.3289 nmol / mg protein x 6 min
inhibition of alanine uptake (SNAT1; HCC1806 D126, Figure 4B, betaine and MeAIB 10 mM): did not inhibit alanine uptake
